pIC50: −log10 of the molar value.
Target: High affinity nerve growth factor receptor (Homo sapiens, UniProt P04629)
Experiment: Biological Assay: TrkA functional activity was measured using a DiscoverX PathHunter assay. In this assay, U2OS cells express the human TrkA receptor as a fusion with the weakly complementing fragment of B-galactosidase, which DiscoverX calls Prolink (PK); additionally, Shc1 is fused with a larger fragment, which is called Enzyme Acceptor (EA). Activation of the TrkA receptor, upon NGF addition, results in the kinase domain being phosphorylated, resulting in subsequent recruitment of Shc1-EA protein. That recruitment results in an active B-galactosidase enzyme that is detected by addition of a chemiluminescent substrate. The human p75NTR protein was also expressed as a co-receptor for NGF.

Sequence of High affinity nerve growth factor receptor (P04629 whole entry, the tested form may be a part): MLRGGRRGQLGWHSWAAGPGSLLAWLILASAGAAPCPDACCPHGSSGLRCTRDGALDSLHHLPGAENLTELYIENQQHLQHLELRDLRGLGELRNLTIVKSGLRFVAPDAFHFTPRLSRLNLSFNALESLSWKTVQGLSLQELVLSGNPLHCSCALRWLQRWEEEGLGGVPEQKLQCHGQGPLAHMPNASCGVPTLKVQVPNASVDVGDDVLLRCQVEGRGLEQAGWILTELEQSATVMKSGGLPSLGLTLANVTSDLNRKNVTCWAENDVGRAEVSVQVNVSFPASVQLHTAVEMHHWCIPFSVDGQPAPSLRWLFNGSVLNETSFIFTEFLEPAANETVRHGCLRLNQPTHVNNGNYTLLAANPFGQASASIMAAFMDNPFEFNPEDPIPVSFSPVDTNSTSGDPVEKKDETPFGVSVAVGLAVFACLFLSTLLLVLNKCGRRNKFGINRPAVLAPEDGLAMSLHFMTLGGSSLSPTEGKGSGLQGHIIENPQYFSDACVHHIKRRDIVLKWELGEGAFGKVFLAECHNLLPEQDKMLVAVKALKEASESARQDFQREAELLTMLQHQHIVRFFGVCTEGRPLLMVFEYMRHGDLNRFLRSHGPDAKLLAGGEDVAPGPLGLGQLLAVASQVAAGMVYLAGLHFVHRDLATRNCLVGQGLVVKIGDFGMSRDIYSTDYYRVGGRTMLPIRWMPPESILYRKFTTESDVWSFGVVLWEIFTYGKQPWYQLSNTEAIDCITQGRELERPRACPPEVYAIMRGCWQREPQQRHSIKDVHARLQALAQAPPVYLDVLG

## Cn1ccc(-c2cc(C(=O)Nc3c(-c4ccccc4)ccc4c(C(C)(C)O)ncn34)c(F)cc2C(F)(F)F)n1
  pIC50: 7.30

From ChEMBL document CHEMBL5727531, “TrkA kinase inhibitors, compositions and methods thereof” (2020)
